According to patent US20240115715A1, “PHARMACEUTICAL COMPOSITIONS FOR VAPORIZATION AND INHALATION” (GROW BIOTECH PLC, priority 2022, published 2024):

Assay: Thermogravimetric analysis (TGA) / DSC of API vaporisation from crosslinked β-cyclodextrin micro sponge complex under nitrogen purge
Type: physicochemical
Experimental: Differential scanning calorimetry (“DSC”) and thermogravimetric analysis (“TGA”) was performed on a Netzsch STA 409PC/PG with Infrared (“IR”) analysis of the volatiles under a purge of nitrogen gas. TGA was completed at a temperature of 250° C.
The suitability of an API for vaping from the insoluble β-cyclodextrin micro sponge, or from other crosslinked polysaccharide micro sponges, can be tested using TGA. When TGA is applied, a sample of API bound with the insoluble β-cyclodextrin micro sponge is heated at a constant rate, simulating the heat used in a vaporisation device. The sample is kept under a constant flow of nitrogen gas, simulating the inhalation of the user, drawing volatile compounds away from the heated sample.
Vaporization kinetics refer to the rate of dissociation of the API as vapour from the micro sponge, as determined by TGA.

CCCCCc1cc(O)c(C/C=C(\C)CCC=C(C)C)c(O)c1 [CBG, cannabigerol]
onset temperature of vaporisation of API (TGA) (Examples II, IV, V, VI, ramp rate 5° C. min^-1): 190 °C

CCCCCc1cc(O)c(C/C=C(\C)CCC=C(C)C)c(O)c1C(=O)O [CBGA, cannabigerolic acid]
onset temperature of vaporisation of CBG following decarboxylation from CBGA (TGA) (Example III, ramp rate 5° C. min^-1): 190 °C

C=C(C)[C@@H]1CCC(C)=C[C@H]1c1c(O)cc(CCCCC)cc1O [CBD, cannabidiol]
onset temperature of vaporisation of CBD (TGA) (Example I, ramp rate 10° C. min^-1): 160 °C
